Laboratory results published in patent US6319929A, “Suksdorfin analogs, compositions thereof, and methods for making and using thereof” (priority 1998, dated 2001).

System: HIV-2 replication in HUT-78 cells
Experiment: Suppression of virus replication during HIV-2 infection of HUT-78 cells (reverse transcriptase assay)
Type: cell-based
Excerpt: During this experiment, HIV-2 was used. The basic assay system is identical to that used for HIV-1 except that a different virus stock was used and rather than a p24 antigen ELISA determination a reverse transcriptase assay was used to detect the presence of the virus.

`CC1(C)Oc2ccc3ccc(=O)oc3c2[C@@H](OC(=O)[C@@]23CC[C@@](C)(C(=O)O2)C3(C)C)[C@H]1OC(=O)[C@@]12CC[C@@](C)(C(=O)O1)C2(C)C` [Compound 16, 3',4'-Di-O-(-)-Camphanoyl-(+)-cis-Khellactone] was tested, and the “effect on HIV-2 replication (in words)” value was “no effect on the virus replication of HIV-2”.
